# From ChEMBL document CHEMBL6103565, “Current strategies in design and synthesis of antifungals hybrid and chimeric diazine derivatives” (Bioorg Med Chem, 2025)
# Experiments:
# Type in all cases: functional
# Candida albicans [1] = experiment: Antifungal activity against Candida albicans assessed as diameter of zone inhibition by disc diffusion method; also: test concentration or dose not given here
# Aspergillus niger [2] = experiment: Antifungal activity against Aspergillus niger assessed as zone of inhibition by disc diffusion method; also: test concentration or dose not given here
# Pichia kudriavzevii = experiment: Antifungal activity against Candida krusei ATCC 6258
# Nakaseomyces glabratus = experiment: Antifungal activity against Candida glabrata ATCC 90030
# Candida parapsilosis = experiment: Antifungal activity against Candida parapsilosis ATCC 22019; conditions: Lodderomyces parapsilosis
# Candida albicans [3] = experiment: Antifungal activity against Candida albicans ATCC 10231
# Aspergillus niger [4] = experiment: Antifungal activity against Aspergillus niger assessed as inhibition of fungal growth
# Candida tropicalis = experiment: Antifungal activity against Candida tropicalis assessed as inhibition of fungal growth
# Saccharomyces cerevisiae [5] = experiment: Antimicrobial activity against Saccharomyces cerevisiae assessed as zone of inhibition by disc diffusion method; also: test concentration or dose not given here
# Candida albicans [6] = experiment: Antifungal activity against Candida albicans assessed as zone of inhibition by disc diffusion method; also: test concentration or dose not given here
# Saccharomyces cerevisiae [7] = experiment: Antimicrobial activity against Saccharomyces cerevisiae assessed as zone of inhibition; also: test concentration or dose not given here
# Candida albicans [8] = experiment: Antifungal activity against Candida albicans
# Candida albicans [9] = experiment: Antifungal activity against Candida albicans assessed as zone of inhibition by serial dilution and disc diffusion method; also: test concentration or dose not given here
# Candida albicans [10] = experiment: Antifungal activity against Candida albicans assessed as diameter of zone inhibition; also: test concentration or dose not given here
smiles,measurement,setting,value
COC(=O)c1c(C(=O)OC)c2cccnn2c1C(=O)c1ccc(C)cc1,inhibition zone (IZ),Candida albicans [1],18 mm
CCOC(=O)c1cc(C(=O)c2ccc(C)cc2)n2ncccc12,inhibition zone (IZ),Candida albicans [1],18 mm
CC1=CC2C(C#N)CC(C(=O)c3ccc(Br)cc3)N2C=N1 (stereo not given),inhibition zone (IZ),Candida albicans [1],22 mm
CCOC(=O)c1cc(C(=O)c2ccc(C)cc2)n2nc(C)c3ccccc3c12,inhibition zone (IZ),Candida albicans [1],18 mm
COc1ccc(C2c3c([nH]c(=O)[nH]c3=O)OC3N=CN(c4cc(C)ccn4)C(=N)C32)cc1 (stereo not given),inhibition zone (IZ),Aspergillus niger [2],10 mm
CCOC(=O)c1c(C(=O)OCC)c2cc(C)ncn2c1C(=O)c1ccc(Br)cc1,inhibition zone (IZ),Candida albicans [1],22 mm
Nc1nc2ccccc2nc1NC1CC(C(=O)O)=CC1=O (stereo not given),MIC,Pichia kudriavzevii,0.78 µg/mL
same,MIC,Nakaseomyces glabratus,0.78 µg/mL
same,MIC,Candida parapsilosis,0.78 µg/mL
same,MIC50,Candida albicans [3],0.78 µg/mL
Nc1nc(-c2ccccn2)cc(-c2cnc(Cl)cn2)n1,MIC,Aspergillus niger [4],110 µM
same,MIC,Candida tropicalis,110 µM
C(=N\c1ncnc2[nH]ccc12)/c1ccccc1,inhibition zone (IZ),Saccharomyces cerevisiae [5],13 mm
same,inhibition zone (IZ),Candida albicans [6],15 mm
Fc1ccccc1/C=N/c1ncnc2[nH]ccc12,inhibition zone (IZ),Saccharomyces cerevisiae [5],13 mm
same,inhibition zone (IZ),Candida albicans [6],15 mm
Fc1ccc(/C=N/c2ncnc3[nH]ccc23)cc1,inhibition zone (IZ),Saccharomyces cerevisiae [5],13 mm
same,inhibition zone (IZ),Candida albicans [6],15 mm
Nc1nc(-c2ccc([N+](=O)[O-])cc2)cc(-c2cnc(Cl)cn2)n1,MIC,Aspergillus niger [4],97.3 µM
same,MIC,Candida tropicalis,97.3 µM
Fc1cccc(/C=N/c2ncnc3[nH]ccc23)c1,inhibition zone (IZ),Saccharomyces cerevisiae [5],21 mm
same,inhibition zone (IZ),Candida albicans [6],15 mm
CCOC(=O)c1c(C(=O)OCC)c2cc(C)ncn2c1C(=O)c1ccc([N+](=O)[O-])cc1,inhibition zone (IZ),Candida albicans [1],28 mm
COc1ccc(/C=N/Nc2ncnc3[nH]ccc23)cc1OC,inhibition zone (IZ),Saccharomyces cerevisiae [7],24 mm
CC1=NN2C(C(=O)c3ccc(C)cc3)CC(C#N)C2c2ccccc21 (stereo not given),inhibition zone (IZ),Candida albicans [1],18 mm
Cl.FC(F)(F)c1nnc2n1CCNC2,MIC,Candida albicans [8],250 µg/mL
COc1ccc(C2c3c([nH]c(=O)[nH]c3=O)OC3N=CN(C(N)=O)C(=N)C32)cc1 (stereo not given),inhibition zone (IZ),Aspergillus niger [2],10 mm
CC1=NN(c2ccccc2)C2N=C3SCCN3C(c3ccccc3[N+](=O)[O-])C12 (stereo not given),inhibition zone (IZ),Aspergillus niger [2],24 mm
O=c1c(C(O)c2ccccc2)c2sc(S)c(-c3ccccc3)n2c2nc(-c3ccccc3)c(-c3ccccc3)n12 (stereo not given),inhibition zone (IZ),Aspergillus niger [2],15 mm
COC(=O)c1c(C(=O)OC)c2c3ccccc3cnn2c1C(=O)c1ccc(C)cc1,inhibition zone (IZ),Candida albicans [1],18 mm
CN(C)c1ccc(/C=N/c2c(N)n(Cc3ccccc3)c(=O)[nH]c2=O)cc1,inhibition zone (IZ),Candida albicans [6],10 mm
COc1cc(-c2cc(-c3cnc(Cl)cn3)nc(N)n2)ccc1O,MIC,Aspergillus niger [4],107 µM
same,MIC,Candida tropicalis,107 µM
Nc1nc(-c2cnc(Cl)cn2)cc(-c2ccc[nH]2)n1,MIC,Aspergillus niger [4],110 µM
same,MIC,Candida tropicalis,110 µM
COc1ccc(OC)c(/C=N/Nc2ncnc3[nH]ccc23)c1,inhibition zone (IZ),Saccharomyces cerevisiae [7],24 mm
same,inhibition zone (IZ),Candida albicans [9],30 mm
Nc1nc(-c2cnc(Cl)cn2)cc(-c2ccc(F)cc2F)n1,MIC,Aspergillus niger [4],50 µM
same,MIC,Candida tropicalis,50 µM
Cc1cccc(-c2nc3ccccc3nc2N2CCN(Cc3ccccc3)CC2)c1,inhibition zone (IZ),Candida albicans [10],14 mm
O=[N+]([O-])c1ccc(/C=N/c2ncnc3[nH]ccc23)cc1,inhibition zone (IZ),Saccharomyces cerevisiae [5],13 mm
same,inhibition zone (IZ),Candida albicans [6],15 mm
Cc1ccc(C2c3c([nH]c(=O)[nH]c3=O)OC(NC(=O)/C=C/C(=O)O)C2C#N)cc1 (stereo not given),inhibition zone (IZ),Aspergillus niger [2],10 mm
Nc1nc(-c2cnc(Cl)cn2)cc(-c2ccc(Cl)cc2Cl)n1,MIC,Aspergillus niger [4],45.4 µM
same,MIC,Candida tropicalis,45.4 µM
COC(=O)C1C(C(=O)OC)C(C(=O)c2ccccc2)N2N=C(c3ccc(Cl)cc3)C=CC12 (stereo not given),inhibition zone (IZ),Candida albicans [10],25 mm
CC1=NN(c2ccccc2)C2N=C3SCCN3C(c3cccc(Cl)c3)C12 (stereo not given),inhibition zone (IZ),Aspergillus niger [2],24 mm
CC1=NN(c2ccccc2)C2N=C3SCCN3C(c3ccc(F)cc3)C12 (stereo not given),inhibition zone (IZ),Aspergillus niger [2],24 mm
Nc1nc(-c2cnc(Cl)cn2)cc(-c2cccs2)n1,MIC,Aspergillus niger [4],110 µM
same,MIC,Candida tropicalis,110 µM
CC1=CC2C(C#N)CC(C(=O)c3ccc([N+](=O)[O-])cc3)N2C=N1 (stereo not given),inhibition zone (IZ),Candida albicans [1],24 mm
COC(=O)c1c(C(=O)OC)c2c3ccccc3c(C)nn2c1C(=O)c1ccc(C)cc1,inhibition zone (IZ),Candida albicans [1],18 mm
CC1=NN2C(C(=O)c3ccc(C)cc3)C3C(=O)N(c4ccccc4)C(=O)C3C2c2ccccc21 (stereo not given),inhibition zone (IZ),Candida albicans [1],18 mm
Nc1nc(-c2ccc(Cl)cc2)cc(-c2cnc(Cl)cn2)n1,MIC,Aspergillus niger [4],97.3 µM
same,MIC,Candida tropicalis,97.3 µM
COc1ccccc1/C=N/Nc1ncnc2[nH]ccc12,inhibition zone (IZ),Candida albicans [9],30 mm
COc1ccc(C2c3c([nH]c(=O)[nH]c3=O)OC3N=CN(c4ccccc4N)C(=N)C32)cc1 (stereo not given),inhibition zone (IZ),Aspergillus niger [2],10 mm
O=C(CN1CCn2c(nnc2C(F)(F)F)C1)Nc1nc2ccccc2s1,MIC,Candida albicans [8],250 µg/mL
COc1cccc(/C=N/Nc2ncnc3[nH]ccc23)c1,inhibition zone (IZ),Saccharomyces cerevisiae [7],24 mm
same,inhibition zone (IZ),Candida albicans [9],30 mm
